Measurements: publication doi:10.1101/2025.10.24.684310v1 (biorxiv, 2025)

Columns and labels:
in vitro [1] = conditions: PAMPA
in vitro [2] = conditions: human, liver microsomes
in vitro [3] = conditions: PAMPA; remark: listed apart in the source
in vitro [4] = conditions: human, liver microsomes; remark: listed apart in the source
in vitro [5] = conditions: human, liver microsomes; remark: listed apart in the source
hERG = hERG (Homo sapiens, UniProt Q12809, species not given); assay: hERG channel inhibition; assay type: cell-based
CYP1A2 = biological target: T1, CYP1A2 (Homo sapiens, UniProt P05177); assay: in vitro
T1 sequence (P05177 1-516): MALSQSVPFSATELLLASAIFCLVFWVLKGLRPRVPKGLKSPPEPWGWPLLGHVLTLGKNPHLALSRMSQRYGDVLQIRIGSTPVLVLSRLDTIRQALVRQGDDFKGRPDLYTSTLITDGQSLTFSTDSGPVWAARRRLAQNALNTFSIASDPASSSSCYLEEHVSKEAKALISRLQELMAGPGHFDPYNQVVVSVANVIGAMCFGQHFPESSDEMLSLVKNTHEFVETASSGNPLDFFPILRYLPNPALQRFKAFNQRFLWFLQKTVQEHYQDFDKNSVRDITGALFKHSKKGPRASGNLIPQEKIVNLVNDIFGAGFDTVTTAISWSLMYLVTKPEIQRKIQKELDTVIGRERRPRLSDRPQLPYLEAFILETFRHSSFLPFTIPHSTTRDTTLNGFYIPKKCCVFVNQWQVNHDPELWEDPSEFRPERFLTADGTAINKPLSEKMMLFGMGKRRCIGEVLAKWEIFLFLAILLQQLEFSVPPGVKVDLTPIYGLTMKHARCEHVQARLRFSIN

CYP2D6 = CYP2D6 (Homo sapiens, UniProt P10635); assay: in vitro
CYP2C9 = CYP2C9 (Homo sapiens, UniProt P11712); assay: in vitro
CYP2C19 = CYP2C19 (Homo sapiens, UniProt P33261); assay: in vitro
CYP2C19, sequence (P33261 whole entry): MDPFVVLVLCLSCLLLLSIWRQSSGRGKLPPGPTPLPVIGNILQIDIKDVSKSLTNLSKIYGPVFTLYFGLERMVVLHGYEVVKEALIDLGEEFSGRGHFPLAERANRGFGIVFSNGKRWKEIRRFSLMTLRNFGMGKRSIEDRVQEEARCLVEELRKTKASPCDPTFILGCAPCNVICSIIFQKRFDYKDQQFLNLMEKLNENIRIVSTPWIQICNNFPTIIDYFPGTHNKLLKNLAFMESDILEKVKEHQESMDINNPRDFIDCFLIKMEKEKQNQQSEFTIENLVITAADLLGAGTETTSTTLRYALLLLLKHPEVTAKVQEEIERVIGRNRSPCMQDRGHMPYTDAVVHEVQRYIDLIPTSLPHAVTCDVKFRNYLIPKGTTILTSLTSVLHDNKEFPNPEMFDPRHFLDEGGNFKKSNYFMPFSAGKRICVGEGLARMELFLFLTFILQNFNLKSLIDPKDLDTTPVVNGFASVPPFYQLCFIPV

hERG, sequence (Q12809 whole entry): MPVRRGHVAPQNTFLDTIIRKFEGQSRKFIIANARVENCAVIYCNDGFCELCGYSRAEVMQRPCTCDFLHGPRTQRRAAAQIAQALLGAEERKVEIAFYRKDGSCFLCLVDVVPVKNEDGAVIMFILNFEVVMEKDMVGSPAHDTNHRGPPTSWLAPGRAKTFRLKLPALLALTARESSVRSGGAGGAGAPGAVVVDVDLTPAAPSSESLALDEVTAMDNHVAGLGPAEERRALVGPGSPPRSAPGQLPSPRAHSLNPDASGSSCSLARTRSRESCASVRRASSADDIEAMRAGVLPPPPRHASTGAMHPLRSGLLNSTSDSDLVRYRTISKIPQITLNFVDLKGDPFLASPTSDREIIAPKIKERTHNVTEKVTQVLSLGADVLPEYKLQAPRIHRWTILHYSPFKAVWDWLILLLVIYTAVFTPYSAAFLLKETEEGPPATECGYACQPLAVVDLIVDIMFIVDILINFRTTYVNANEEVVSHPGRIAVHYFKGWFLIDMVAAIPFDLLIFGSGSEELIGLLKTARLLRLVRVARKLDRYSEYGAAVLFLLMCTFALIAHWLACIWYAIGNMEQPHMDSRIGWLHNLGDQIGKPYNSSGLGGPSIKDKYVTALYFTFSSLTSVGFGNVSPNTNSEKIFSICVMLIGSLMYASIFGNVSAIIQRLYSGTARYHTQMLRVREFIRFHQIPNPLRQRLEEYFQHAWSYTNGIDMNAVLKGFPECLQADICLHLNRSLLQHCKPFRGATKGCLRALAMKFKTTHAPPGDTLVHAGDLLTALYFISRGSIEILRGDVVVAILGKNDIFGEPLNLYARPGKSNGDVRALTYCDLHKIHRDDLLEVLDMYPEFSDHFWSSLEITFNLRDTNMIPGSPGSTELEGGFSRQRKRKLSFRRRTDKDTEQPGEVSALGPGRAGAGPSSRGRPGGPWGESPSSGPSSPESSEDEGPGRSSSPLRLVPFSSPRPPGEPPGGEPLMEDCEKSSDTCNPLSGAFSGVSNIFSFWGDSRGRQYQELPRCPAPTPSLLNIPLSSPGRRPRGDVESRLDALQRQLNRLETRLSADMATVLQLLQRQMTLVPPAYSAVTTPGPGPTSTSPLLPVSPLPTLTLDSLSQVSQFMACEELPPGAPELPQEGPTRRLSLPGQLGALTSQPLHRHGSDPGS
CYP2D6, sequence (P10635 whole entry): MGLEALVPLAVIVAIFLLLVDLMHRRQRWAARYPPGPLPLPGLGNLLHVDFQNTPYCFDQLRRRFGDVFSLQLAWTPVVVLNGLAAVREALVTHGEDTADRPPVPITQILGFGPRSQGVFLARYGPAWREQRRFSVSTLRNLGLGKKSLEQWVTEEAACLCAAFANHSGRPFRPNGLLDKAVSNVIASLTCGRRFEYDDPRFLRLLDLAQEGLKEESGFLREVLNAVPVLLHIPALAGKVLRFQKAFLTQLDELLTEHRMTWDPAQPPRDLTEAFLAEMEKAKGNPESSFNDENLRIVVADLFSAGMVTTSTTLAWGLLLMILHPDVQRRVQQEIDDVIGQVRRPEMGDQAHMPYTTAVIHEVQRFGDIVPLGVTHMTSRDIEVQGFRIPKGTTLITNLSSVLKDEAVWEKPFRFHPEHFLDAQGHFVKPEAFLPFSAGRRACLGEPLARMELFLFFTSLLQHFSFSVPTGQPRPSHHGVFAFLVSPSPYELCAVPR
CYP2C9, sequence (P11712 whole entry): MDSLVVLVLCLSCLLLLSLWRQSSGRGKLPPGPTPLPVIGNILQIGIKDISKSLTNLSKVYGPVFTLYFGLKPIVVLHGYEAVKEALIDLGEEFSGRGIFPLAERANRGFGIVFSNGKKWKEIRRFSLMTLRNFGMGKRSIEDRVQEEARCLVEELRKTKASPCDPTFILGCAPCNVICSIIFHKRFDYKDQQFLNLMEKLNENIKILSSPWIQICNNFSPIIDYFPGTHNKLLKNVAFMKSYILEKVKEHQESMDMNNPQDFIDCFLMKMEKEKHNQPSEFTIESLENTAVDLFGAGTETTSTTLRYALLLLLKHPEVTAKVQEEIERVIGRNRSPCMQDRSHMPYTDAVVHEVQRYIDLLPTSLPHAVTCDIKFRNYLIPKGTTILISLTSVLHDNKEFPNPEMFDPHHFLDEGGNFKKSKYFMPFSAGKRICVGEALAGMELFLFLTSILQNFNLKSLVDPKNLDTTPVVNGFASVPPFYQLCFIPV

SMILES: CC1=C(C(=O)Nc2ccc(Cl)cc2)C(c2ccccc2)NC(=S)N1 (stereo not shown) [CT1]
- Papp (in vitro [1]): 3.6 ± 0.1 ×10⁻⁶ cm/s

SMILES: CC1=C(C(=O)Nc2ccc(Cl)cc2)C(c2ccc(Cl)cc2)NC(=S)N1 (stereo not shown) [CT2]
- Papp (in vitro [1]): 7.1 ± 0.1 ×10⁻⁶ cm/s

SMILES: COc1ccc(C2NC(=S)NC(C)=C2C(=O)Nc2ccc(Cl)cc2)cc1 (stereo not shown) [CT3]
- Papp (in vitro [1]): 3.4 ± 0.3 ×10⁻⁶ cm/s

SMILES: CC1=C(C(=O)Nc2ccc(Cl)cc2)C(c2ccc(C)cc2)NC(=S)N1 (stereo not shown) [CT4]
- Papp (in vitro [1]): 4.6 ± 0.2 ×10⁻⁶ cm/s

SMILES: CC1=C(C(=O)Nc2ccc(Cl)cc2)C(c2ccc(Cl)c(Cl)c2)NC(=S)N1 (stereo not shown) [CT5]
- Papp (in vitro [1]): 7.6 ± 1 ×10⁻⁶ cm/s

SMILES: CC1=C(C(=O)Nc2ccc(Cl)cc2)C(c2ccccc2)NC(=O)N1 (stereo not shown) [CU1]
- Papp (in vitro [1]): 9.5 ± 0.2 ×10⁻⁶ cm/s

SMILES: CC1=C(C(=O)Nc2ccc(Cl)cc2)C(c2ccc(Cl)cc2)NC(=O)N1 (stereo not shown) [CU2]
- Papp (in vitro [1]): 7.7 ± 0.2 ×10⁻⁶ cm/s

SMILES: COc1ccc(C2NC(=O)NC(C)=C2C(=O)Nc2ccc(Cl)cc2)cc1 (stereo not shown) [CU3]
- Papp (in vitro [1]): 5.9 ± 0.2 ×10⁻⁶ cm/s

SMILES: CC1=C(C(=O)Nc2ccc(Cl)cc2)C(c2ccc(C)cc2)NC(=O)N1 (stereo not shown) [CU4]
- Papp (in vitro [1]): 5.3 ± 0.2 ×10⁻⁶ cm/s

SMILES: CC1=C(C(=O)Nc2ccc(Cl)cc2)C(c2ccc(Cl)c(Cl)c2)NC(=O)N1 (stereo not shown) [CU5]
- Papp (in vitro [1]): 13.6 ± 0.5 ×10⁻⁶ cm/s

SMILES: CCOC(=O)C1=C(C)NC(=S)NC1c1ccc(Cl)cc1 (stereo not shown) [T2]
- remaining at 1 h (in vitro [2]): 77.7%
- Papp (in vitro [3]): 12.2 ± 0.7 ×10⁻⁶ cm/s
- microsomal CLint (in vitro [4]): 7.8 µL/min/mg
- half-life (in vitro [5]): 2.36 h
- IC50 (hERG): > 10 µM

SMILES: CCOC(=O)C1=C(C)NC(=S)NC1c1ccc(OC)cc1 (stereo not shown) [T3, Ethyl 4-(4-methoxyphenyl)-6-methyl-2-thioxo-1,2,3,4-tetrahydropyrimidine-5-carboxylate]
- inhibition at 1 µM (CYP1A2): -13.3 ± 2%
- inhibition at 1 µM (CYP2D6): -3.2 ± 0.2%
- inhibition at 1 µM (CYP2C9): 3.7 ± 1.1%
- inhibition at 1 µM (CYP2C19): 11.7 ± 4.5%

SMILES: CCOC(=O)C1=C(C)NC(=S)NC1c1ccc(OC)cc1 (stereo not shown) [T3]
- Papp (in vitro [3]): 8.1 ± 0.5 ×10⁻⁶ cm/s
- IC50 (hERG): > 10 µM

SMILES: CCOC(=O)C1=C(C)NC(=S)NC1c1ccc(C)cc1 (stereo not shown) [T4]
- Papp (in vitro [3]): 10.3 ± 0.3 ×10⁻⁶ cm/s

SMILES: CCOC(=O)C1=C(C)NC(=S)NC1c1ccc(Cl)c(Cl)c1 (stereo not shown) [T5]
- Papp (in vitro [3]): 16.2 ± 0.5 ×10⁻⁶ cm/s

SMILES: CCOC(=O)C1=C(C)NC(=S)NC1c1ccc(C(F)(F)F)cc1 (stereo not shown) [T6]
- Papp (in vitro [3]): > 30 ×10⁻⁶ cm/s

SMILES: CCOC(=O)C1=C(C)NC(=S)NC1c1ccccc1Cl (stereo not shown) [T9, Ethyl 4-(2-chlorophenyl)-6-methyl-2-thioxo-1,2,3,4-tetrahydropyrimidine-5-carboxylate]
- remaining at 1 h (in vitro [2]): 82.4%
- microsomal CLint (in vitro [4]): 3 µL/min/mg
- half-life (in vitro [5]): 3.69 h

SMILES: CCOC(=O)C1=C(C)NC(=S)NC1c1ccc(OCC)cc1 (stereo not shown) [T10]
- Papp (in vitro [3]): 0.1 ×10⁻⁶ cm/s

SMILES: CCOC(=O)C1=C(C)NC(=S)NC1c1cccc(O)c1 (stereo not shown) [T12]
- Papp (in vitro [3]): 17.7 ± 0.9 ×10⁻⁶ cm/s

SMILES: CCOC(=O)C1=C(C)NC(=S)NC1c1ccc(F)cc1 (stereo not shown) [T13]
- Papp (in vitro [3]): 18.4 ± 1.6 ×10⁻⁶ cm/s

SMILES: COC(=O)C1=C(C)NC(=S)NC1c1cccc(OC)c1 (stereo not shown) [T14]
- Papp (in vitro [3]): 3.5 ± 0.6 ×10⁻⁶ cm/s

SMILES: CCOC(=O)C1=C(C)NC(=O)NC1c1ccc(Cl)c(Cl)c1 (stereo not shown) [U5]
- Papp (in vitro [3]): 15.8 ± 0.5 ×10⁻⁶ cm/s

SMILES: CCOC(=O)C1=C(C)NC(=O)NC1c1ccc(C(F)(F)F)cc1 (stereo not shown) [U6]
- Papp (in vitro [3]): 11.5 ± 0.4 ×10⁻⁶ cm/s

SMILES: CCOC(=O)C1=C(C)NC(=O)NC1c1ccc(Cl)cc1Cl (stereo not shown) [U7]
- Papp (in vitro [3]): 15.3 ± 1 ×10⁻⁶ cm/s

SMILES: COC(=O)C1=C(C)NC(=O)NC1c1cccc(Br)c1 (stereo not shown) [U12]
- Papp (in vitro [3]): 2 ± 0.2 ×10⁻⁶ cm/s

SMILES: CCOC(=O)C1=C(C)NC(=O)NC1c1cccc(O)c1 (stereo not shown) [U13]
- Papp (in vitro [3]): 0.003 ± 0.001 ×10⁻⁶ cm/s

SMILES: CCOC(=O)C1=C(C)NC(=O)NC1c1ccc(F)cc1 (stereo not shown) [U14, Ethyl 4-(4-fluorophenyl)-6-methyl-2-oxo-1,2,3,4-tetrahydropyrimidine-5-carboxylate]
- remaining at 1 h (in vitro [2]): 74.1%
- microsomal CLint (in vitro [4]): 5.4 µL/min/mg
- half-life (in vitro [5]): 2.47 h

SMILES: CCOC(=O)C1=C(C)NC(=O)NC1c1ccc(F)cc1 (stereo not shown) [U14]
- Papp (in vitro [3]): 6.2 ± 0.3 ×10⁻⁶ cm/s

SMILES: COC(=O)C1=C(C)NC(=O)NC1c1ccccc1 (stereo not shown) [U15, Methyl 6-methyl-2-oxo-4-phenyl-1,2,3,4-tetrahydropyrimidine-5-carboxylate]
- remaining at 1 h (in vitro [2]): 93%
- microsomal CLint (in vitro [4]): 1.2 µL/min/mg
- half-life (in vitro [5]): 10.7 h
